“Also recorded” adds a separate entry of the source. Where two headings read alike, the source gives them in different places.
How the values were obtained:
cardiac muscle cells = details: cited from earlier work
[1] = Serum concentration (2): serum radioactivity after oral administration at several doses; details: male rats, Mean ± S.D (n = 5)
[2] = rat, in vivo
Procedure: Using these values of AUC(0-.infin.) and the doses applied, the bioavailability was calculated according to the following Equation 1. [formula]

[3] = Thermal analysis (TG-DTA); format: physicochemical; details: dry nitrogen, 5° C./min
Procedure: The anhydrous crystal described in Example 1 of the Japanese Patent Unexamined Publication (KOKAI) No.(Hei)3-7263/1991 and the monohydrate of the present invention were subjected to thermal analysis by a thermal analyzer (RIGAKU TAS-200) under dry nitrogen atmosphere using each of 10 mg of samples. The measurements were carried out in the temperature range of from 50 to 400° C. applying the temperature raising rate of 5° C./min. As the anhydrous crystals, those obtained in the above process (a) was used.

[4] = Hygroscopic property: weight change on storage in a desiccator; format: physicochemical; details: 20° C.
Procedure: Each of the samples of the monohydrate of the present invention was put in a desiccator adjusted at a relative humidity of 57% or 98%, and then stored at 20° C. for 16 days. Weight changes during the period of time were measured. As controls, the anhydrous crystals obtained in the above process (a) in Example 1 were also stored in a desiccator adjusted at a relative humidity of 57% or 98%, and weight changes were measured. The results are shown in Table 2 [in the table, each of the values (%) represents a weight increase]. […] On the other hand, as for the anhydrous crystal, the weight increase of about 7% was observed, which corresponded to about 1 mole of the water of crystal.

[5] = Weight and appearance on further drying; format: physicochemical; details: further 27 hours, 50° C., 90 mmHg
Procedure: The anhydrous crystal of 5-Methyl-2-(1-piperazinyl) benzenesulfonic acid (10.00 g) and distilled water (30 ml) were added in a 100 ml round-bottomed flask and the mixture was stirred at 5° C. for 2 hours. The crystals were collected from the suspension by suction filtration and the crystals remained in the round-bottomed flask were recovered by washing with distilled water (3 ml). The crystals were combined and dried at 50° C. and 90 mmHg for 3 hours to give 5-methyl-2-(1-piperazinyl)benzenesulfonic acid monohydrate as white crystals (10.36 g, yield: 96.8%). After drying was further continued for 27 hours under the same conditions, the weight and appearance of the monohydrate were not changed. Water content measured by a Karl Fischer water content meter was 6.96%, which further verified that the product was the monohydrate (calculated content: 6.56%).
The anhydrous crystal of 5-Methyl-2-(1-piperazinyl) benzenesulfonic acid (10.00 g) and distilled water (75 ml) were charged in a 200 ml round-bottomed flask and the crystals were thoroughly dissolved by heating under reflux with stirring. The solution was then cooled to 5° C. with stirring and stirring was further continued for 2 hours at the same temperature. […] Water content measured by a Karl Fischer water content meter was 6.75%, which further verified that the product was the monohydrate. […]

[6] = Stability and release of water of crystal of the monohydrate; format: physicochemical; details: for stability (in words): long period / room temperature / once formed, monohydrate
[7] = rat, in vivo; remark: listed apart in the source

SMILES: Cc1ccc(N2CCNCC2)c(S(=O)(=O)O)c1 [Compound 2, 2-(1-piperazinyl)-5-methylbenzenesulfonic acid]
- inhibition of the inflow of calcium ions into cardiac muscle cells (in words) (cardiac muscle cells): remarkably inhibits

SMILES: Cc1ccc(N2CCNCC2)c(S(=O)(=O)O)c1 [labeled compound, labeled 2-(1-piperazinyl)-5-methylbenzenesulfonic acid monohydrate]
- AUC ([1]; oral 0.1 mg/kg): 64.1 ± 12.3 ng·h/mL
- C max ([1]; oral 0.1 mg/kg): 16.2 ± 2.6 ng/mL
- T max ([1]; oral 0.1 mg/kg): 2.2 ± 0.5 h
- t 1/2 ([1]; oral 0.1 mg/kg): 1.77 ± 0.34 h
- AUC ([1]; oral 0.3 mg/kg): 270.5 ± 88.4 ng·h/mL
- C max ([1]; oral 0.3 mg/kg): 69.0 ± 17.8 ng/mL
- T max ([1]; oral 0.3 mg/kg): 2.2 ± 0.5 h
- t 1/2 ([1]; oral 0.3 mg/kg): 1.33 ± 0.09 h
- AUC ([1]; oral 1 mg/kg): 574.4 ± 113.2 ng·h/mL
- C max ([1]; oral 1 mg/kg): 171.6 ± 31.1 ng/mL
- T max ([1]; oral 1 mg/kg): 1.8 ± 0.5 h
- t 1/2 ([1]; oral 1 mg/kg): 1.64 ± 0.17 h
- AUC ([1]; oral 3 mg/kg): 1769.2 ± 498.4 ng·h/mL
- C max ([1]; oral 3 mg/kg): 501.5 ± 133.8 ng/mL
- T max ([1]; oral 3 mg/kg): 2.0 ± 0.0 h
- t 1/2 ([1]; oral 3 mg/kg): 1.30 ± 0.08 h
- AUC(0-.infin.) ([2]; iv, 0.3 mg/kg): 816.28 ng eq·h/ml
- AUC(0-.infin.) ([2]; po, 1 mg/kg): 1039.86 ng eq·h/ml

SMILES: Cc1ccc(N2CCNCC2)c(S(=O)(=O)O)c1 [Anhydrous crystal, 2-(1-piperazinyl)-5-methylbenzenesulfonic acid, reference compound]
- weight loss or thermal absorption peak due to release of the water of crystal (in words) ([3]; below 100° C.): no weight loss or no thermal absorption peak
- bioavailability, maximum value of fluctuation ([2]; po, 0.94 mg/kg): 43.72%
- bioavailability, minimum value of fluctuation ([2]; po, 0.94 mg/kg): 33.03%
- weight increase, 0 day ([4]; 57% RH): 0.00%
- weight increase, 1 day ([4]; 57% RH): 6.99%
- weight increase, 3 days ([4]; 57% RH): 7.08%
- weight increase, 16 days ([4]; 57% RH): 6.89%
- weight increase ([4]; 57% and 98% RH, 16 days, about 1 mole of water of crystal): about 7%
- weight increase, 0 day ([4]; 98% RH): 0.00%
- weight increase, 1 day ([4]; 98% RH): 7.35%
- weight increase, 3 days ([4]; 98% RH): 7.36%
- weight increase, 16 days ([4]; 98% RH): 7.12%

SMILES: Cc1ccc(N2CCNCC2)c(S(=O)(=O)O)c1.O [Monohydrate, 5-methyl-2-(1-piperazinyl)benzenesulfonic acid monohydrate]
- weight and appearance after further drying [5]: not changed
- heating temperature at which water of crystal is gradually released ([6]; ambient or reduced pressure): ≥ 60 °C
- stability (in words) ([6]; listed as monohydrate of 2-(1-piperazinyl)-5-methylbenzenesulfonic acid): stable at room temperature for a long period of time
- stability (in words) [6]: stable and free from weight variation by hygroscopicity; also recorded: stable for a long period of time
- temperature from which weight loss and thermal absorption peak due to release of the water of crystal were observed [3]: around 60 °C
- weight loss due to release of the water of crystal ([3]; 50 to 400° C.): 6.57%
- bioavailability ([2]; po, 1 mg/kg): 38%
- serum concentration versus dose (in words) [7]: linear direct proportion to the dose of administration
- weight increase, 0 day ([4]; 57% RH): 0.00%
- weight increase, 1 day ([4]; 57% RH): 0.11%
- weight increase, 3 days ([4]; 57% RH): 0.20%
- weight increase, 16 days ([4]; 57% RH): 0.21%
- weight change (in words) ([4]; 57% and 98% RH, 16 days): No substantial weight change
- weight increase, 0 day ([4]; 98% RH): 0.00%
- weight increase, 1 day ([4]; 98% RH): 0.28%
- weight increase, 3 days ([4]; 98% RH): 0.40%
- weight increase, 16 days ([4]; 98% RH): 0.39%

From US5990113A, “Monohydrates of aminobenzenesulfonic acid derivatives and method for preparing thereof” (priority 1995, dated 1999)
